According to patent US20210127678A1, “ESTERS OF HETEROCYCLIC COMPOUNDS HAVING A NEMATOCIDAL ACTIVITY, THEIR AGRONOMIC COMPOSITIONS AND THEIR USE” (ISAGRO, S.P.A., priority 2018, published 2021):

The compounds below were run on Meloidogyne sp. (assay: Determination of nematocidal activity against Meloidogyne sp. on potted cucumbers, cv Chinese Long). Conditions: 4,000 g/hectare, 30 days after transplantation.
Assay type: in vivo
Method: Determination of Nematocidal Activity Against Meloidogyne sp. The tests aimed at testing the nematocidal activity of the product under examination were carried out using inoculae taken from a farming of Meloidogyne sp. maintained on potted tomato and cucumber plants and grown in greenhouses. To carry out the experiments, portions of roots having a good number of galls and soil were taken from the infested pots, in which larvae were present starting from the second stage of age. New pots having a diameter of 15 cm were half filled with sterile soil. The portions of infested roots, previously cleaned up, were placed on the same in order to be able to correctly assess the degree of infestation and ensure that each pot contains the same nematic charge. 200-300 g of infested soil were subsequently added, then covered with a thin layer of sterile soil. The treatment was carried out by pouring 100 ml of solution on the surface of the soil, in which the product to be tested was dissolved. Tomato or cucumber seedlings at the stage of two or three true leaves were transplanted in the pots thus prepared, one or seven days after application. Different cultivars of tomato or cucumber were used, having a different sensitivity to the parasite and different growth times. In particular, a variety of ornamental tomatoes (cv Microtom) was used for assessing the final production, whose seedlings are small in size and are able to reach the ripeness of the fruit in pots and under greenhouse conditions in about two months The containment capacity of the parasite was detected, 30 and 60 days after transplantation, considering the development of the root system (where 100% is the development achieved by the healthy comparative root) and the presence of galls on the roots. This was estimated using the infestation scale proposed by Bridge-Page, according to which the value zero corresponds to 0% of the root affected and the value 10 corresponds to 100% of infested root. […] 2, 4, 12, 13, 17 and the Compound CR1, on cucumbers, cv Chinese Long, at a dose of 4,000 g/hectare, effecting the survey 30 days after transplantation. […] 2, 4, 8, 12, 13, 17, 127, 129 and the Compound CR1, on cucumbers, cv Chinese Long, at doses of 2,000 g/hectare, 1,000 g/hectare and 500 g/hectare effecting the survey 30 days after transplantation.

Row | Structure (SMILES) | % INFESTED ROOT [%]
1 | O=C(OCCC(F)=C(F)F)c1cccnc1 [CR1, pyridyl-3-carboxylate of 3,4,4-trifluoro-3-butenyl, reference compound] | 8
2 | Cc1nc(C(F)F)c(C(=O)OCCC(F)=C(F)F)s1 [Comp. Nr. 2, 2-methyl-4-difluoromethyl-thiazole-5-carboxylate of 3,4,4-trifluoro-3-butenyl] | 3
3 | Cc1nnc(C(=O)OCCC(F)=C(F)F)s1 [Comp. Nr. 4, 5-methyl-1,3,4-thiadiazole-2-carboxylate of 3,4,4-trifluoro-3-butenyl] | 3
4 | O=C(OCCC(F)=C(F)F)c1cccnc1C(F)(F)F [Comp. Nr. 12] | 0
5 | Cn1cc(C(=O)OCCC(F)=C(F)F)c(C(F)F)n1 [Comp. Nr. 13] | 0
6 | O=C(OCCC(F)=C(F)F)c1cn2cc(C(F)(F)F)cc(Cl)c2n1 [Comp. Nr. 17] | 3

Same assay, conditions: 4,000 g/hectare, 30 days after transplantation, 100% = healthy comparative root

Row | Structure (SMILES) | ROOT DEVELOPMENT [%]
7 | O=C(OCCC(F)=C(F)F)c1cccnc1 [CR1, pyridyl-3-carboxylate of 3,4,4-trifluoro-3-butenyl, reference compound] | 70
8 | Cc1nc(C(F)F)c(C(=O)OCCC(F)=C(F)F)s1 [Comp. Nr. 2, 2-methyl-4-difluoromethyl-thiazole-5-carboxylate of 3,4,4-trifluoro-3-butenyl] | 90
9 | Cc1nnc(C(=O)OCCC(F)=C(F)F)s1 [Comp. Nr. 4, 5-methyl-1,3,4-thiadiazole-2-carboxylate of 3,4,4-trifluoro-3-butenyl] | 90
10 | O=C(OCCC(F)=C(F)F)c1cccnc1C(F)(F)F [Comp. Nr. 12] | 95
11 | Cn1cc(C(=O)OCCC(F)=C(F)F)c(C(F)F)n1 [Comp. Nr. 13] | 95
12 | O=C(OCCC(F)=C(F)F)c1cn2cc(C(F)(F)F)cc(Cl)c2n1 [Comp. Nr. 17] | 85

Same assay, conditions: 4,000 g/hectare, 30 days after transplantation, Bridge-Page infestation scale

Row | Structure (SMILES) | ALL INDEX scale 0-10
13 | O=C(OCCC(F)=C(F)F)c1cccnc1 [CR1, pyridyl-3-carboxylate of 3,4,4-trifluoro-3-butenyl, reference compound] | 0.8
14 | Cc1nc(C(F)F)c(C(=O)OCCC(F)=C(F)F)s1 [Comp. Nr. 2, 2-methyl-4-difluoromethyl-thiazole-5-carboxylate of 3,4,4-trifluoro-3-butenyl] | 0.3
15 | Cc1nnc(C(=O)OCCC(F)=C(F)F)s1 [Comp. Nr. 4, 5-methyl-1,3,4-thiadiazole-2-carboxylate of 3,4,4-trifluoro-3-butenyl] | 0.3
16 | O=C(OCCC(F)=C(F)F)c1cccnc1C(F)(F)F [Comp. Nr. 12] | 0
17 | Cn1cc(C(=O)OCCC(F)=C(F)F)c(C(F)F)n1 [Comp. Nr. 13] | 0
18 | O=C(OCCC(F)=C(F)F)c1cn2cc(C(F)(F)F)cc(Cl)c2n1 [Comp. Nr. 17] | 0.3

Same assay, conditions: dose applied 0.5 kg ai/ha, 30 days after transplantation

Row | Structure (SMILES) | GALL INDEX (scale 0-10) | WEIGHT OF FRESH PLANT [g]
19 | O=C(OCCC(F)=C(F)F)c1cccnc1 [CR1, pyridyl-3-carboxylate of 3,4,4-trifluoro-3-butenyl, reference compound] | 4.8 | 23
20 | Cc1nc(C(F)F)c(C(=O)OCCC(F)=C(F)F)s1 [Comp. Nr. 2, 2-methyl-4-difluoromethyl-thiazole-5-carboxylate of 3,4,4-trifluoro-3-butenyl] | 2.8 | 36
21 | Cc1nnc(C(=O)OCCC(F)=C(F)F)s1 [Comp. Nr. 4, 5-methyl-1,3,4-thiadiazole-2-carboxylate of 3,4,4-trifluoro-3-butenyl] | 2.2 | 35
22 | O=C(OCCC(F)=C(F)F)c1csc(C(F)(F)F)n1 [Comp. Nr. 8] | 2.5 | 25
23 | O=C(OCCC(F)=C(F)F)c1cccnc1C(F)(F)F [Comp. Nr. 12] | 3.1 | 27
24 | Cn1cc(C(=O)OCCC(F)=C(F)F)c(C(F)F)n1 [Comp. Nr. 13] | 2.1 | 36
25 | O=C(OCCC(F)=C(F)F)c1cn2cc(C(F)(F)F)cc(Cl)c2n1 [Comp. Nr. 17] | 3.3 | 26
26 | O=C(OCCC(F)=C(F)F)c1cncnc1 [Comp. Nr. 127] | 3.4 | 26
27 | Cc1cc(C(=O)OCCC(F)=C(F)F)no1 [Comp. Nr. 129] | 3.6 | 25

Same assay, conditions: dose applied 1 kg ai/ha, 30 days after transplantation

Row | Structure (SMILES) | GALL INDEX (scale 0-10) | WEIGHT OF FRESH PLANT [g]
28 | O=C(OCCC(F)=C(F)F)c1cccnc1 [CR1, pyridyl-3-carboxylate of 3,4,4-trifluoro-3-butenyl, reference compound] | 3.5 | 25
29 | Cc1nc(C(F)F)c(C(=O)OCCC(F)=C(F)F)s1 [Comp. Nr. 2, 2-methyl-4-difluoromethyl-thiazole-5-carboxylate of 3,4,4-trifluoro-3-butenyl] | 2.6 | 37
30 | Cc1nnc(C(=O)OCCC(F)=C(F)F)s1 [Comp. Nr. 4, 5-methyl-1,3,4-thiadiazole-2-carboxylate of 3,4,4-trifluoro-3-butenyl] | 1.9 | 37
31 | O=C(OCCC(F)=C(F)F)c1csc(C(F)(F)F)n1 [Comp. Nr. 8] | 2.3 | 27
32 | O=C(OCCC(F)=C(F)F)c1cccnc1C(F)(F)F [Comp. Nr. 12] | 2.9 | 28
33 | Cn1cc(C(=O)OCCC(F)=C(F)F)c(C(F)F)n1 [Comp. Nr. 13] | 1.2 | 38
34 | O=C(OCCC(F)=C(F)F)c1cn2cc(C(F)(F)F)cc(Cl)c2n1 [Comp. Nr. 17] | 2.8 | 28
35 | O=C(OCCC(F)=C(F)F)c1cncnc1 [Comp. Nr. 127] | 2.1 | 29
36 | Cc1cc(C(=O)OCCC(F)=C(F)F)no1 [Comp. Nr. 129] | 2.4 | 26

Same assay, conditions: dose applied 2 kg ai/ha, 30 days after transplantation

Row | Structure (SMILES) | GALL INDEX (scale 0-10) | WEIGHT OF FRESH PLANT [g]
37 | O=C(OCCC(F)=C(F)F)c1cccnc1 [CR1, pyridyl-3-carboxylate of 3,4,4-trifluoro-3-butenyl, reference compound] | 2.8 | 30
38 | Cc1nc(C(F)F)c(C(=O)OCCC(F)=C(F)F)s1 [Comp. Nr. 2, 2-methyl-4-difluoromethyl-thiazole-5-carboxylate of 3,4,4-trifluoro-3-butenyl] | 1.4 | 35
39 | Cc1nnc(C(=O)OCCC(F)=C(F)F)s1 [Comp. Nr. 4, 5-methyl-1,3,4-thiadiazole-2-carboxylate of 3,4,4-trifluoro-3-butenyl] | 1.9 | 34
40 | O=C(OCCC(F)=C(F)F)c1csc(C(F)(F)F)n1 [Comp. Nr. 8] | 1.2 | 37
41 | O=C(OCCC(F)=C(F)F)c1cccnc1C(F)(F)F [Comp. Nr. 12] | 2.1 | 31
42 | Cn1cc(C(=O)OCCC(F)=C(F)F)c(C(F)F)n1 [Comp. Nr. 13] | 1.2 | 39
43 | O=C(OCCC(F)=C(F)F)c1cn2cc(C(F)(F)F)cc(Cl)c2n1 [Comp. Nr. 17] | 2.2 | 31
44 | O=C(OCCC(F)=C(F)F)c1cncnc1 [Comp. Nr. 127] | 0.9 | 36
45 | Cc1cc(C(=O)OCCC(F)=C(F)F)no1 [Comp. Nr. 129] | 0.9 | 35

What follows are compounds tested on cucumbers, cv Chinese Long (assay: Phytotoxicity on cucumbers, cv Chinese Long (soil treatment of potted plants)). Conditions: zero=no symptoms, 10=destroyed plant.
Assay type: in vivo, cucumber
Method: New pots having a diameter of 15 cm were half filled with sterile soil. The portions of infested roots, previously cleaned up, were placed on the same in order to be able to correctly assess the degree of infestation and ensure that each pot contains the same nematic charge. 200-300 g of infested soil were subsequently added, then covered with a thin layer of sterile soil. The treatment was carried out by pouring 100 ml of solution on the surface of the soil, in which the product to be tested was dissolved. Tomato or cucumber seedlings at the stage of two or three true leaves were transplanted in the pots thus prepared, one or seven days after application. Different cultivars of tomato or cucumber were used, having a different sensitivity to the parasite and different growth times. In particular, a variety of ornamental tomatoes (cv Microtom) was used for assessing the final production, whose seedlings are small in size and are able to reach the ripeness of the fruit in pots and under greenhouse conditions in about two months The product was evaluated considering the possible phytotoxic effects that may compromise the development of the plant (in this case a zero-ten scale was used, according to which zero=no symptoms, 10=destroyed plant) and the effectiveness against nematodes. […] 2, 4, 12, 13, 17 included in general formula (I) and CR1, described in JP 2000038379 instead of the compound having general formula (I).

Row | Structure (SMILES) | Phytotoxicity (scale 0-10)
46 | O=C(OCCC(F)=C(F)F)c1cccnc1 [CR1, pyridyl-3-carboxylate of 3,4,4-trifluoro-3-butenyl, reference compound] | 0
47 | Cc1nc(C(F)F)c(C(=O)OCCC(F)=C(F)F)s1 [Comp. Nr. 2, 2-methyl-4-difluoromethyl-thiazole-5-carboxylate of 3,4,4-trifluoro-3-butenyl] | 0
48 | Cc1nnc(C(=O)OCCC(F)=C(F)F)s1 [Comp. Nr. 4, 5-methyl-1,3,4-thiadiazole-2-carboxylate of 3,4,4-trifluoro-3-butenyl] | 0
49 | O=C(OCCC(F)=C(F)F)c1cccnc1C(F)(F)F [Comp. Nr. 12] | 0
50 | Cn1cc(C(=O)OCCC(F)=C(F)F)c(C(F)F)n1 [Comp. Nr. 13] | 0
51 | O=C(OCCC(F)=C(F)F)c1cn2cc(C(F)(F)F)cc(Cl)c2n1 [Comp. Nr. 17] | 0
